# Assays:
# survivin = experiment: qRT-PCR for survivin in xenograft tumor tissues; type: in vivo, mice; details: 2 mg/kg vs saline
# Protocol: Column represents mean and error bars represent standard deviation. Experiment was done in triplicate (Mean±SEM).
# RNA was extracted from cell lysates using Trizol reagent (Invitrogen) and cDNA was synthesized using SuperScript III First Strand Synthesis (Invitrogen). Quantitative real-time PCR for survivin was performed on cDNA using the SYBR green method (based on manufacturer's protocol, Applied Biosystems). […] The relative change in expression was calculated using the Pffal method (Pfaffl, A new mathematical model for relative quantification in real-time RT-PCR. Nucleic Acids Research 29, e45 (May 1, 2001)). Experiments were repeated six times (2 biological repeats with 3 technical replicates each).
# MKL-1 cells [1] = experiment: Cell cycle analysis (PI and BrdU staining); type: cell-based, human; details: 12 h, YM155 100 nM, camptothecin 1 μM
# Protocol: MKL-1 cells were treated with Accutase (Millipore) to break clumps and then resuspended in fresh medium containing drug and treated for 12 hours. Three hours before harvest 10 μM Bromodeoxyuridine (BrdU) was added. Cells were then harvested and fixed in chilled 70% ethanol and left overnight. The next day cells were washed, resuspended in 200 μl of 2M HCl/Triton X (1%) and incubated for 30 mins at room temperature. Cells were then centrifuged at 2000 rpm for 10 mins and neutralized in 200 μl of 0.1M sodium tetraborate, pH 8.5 solution. Cells were then washed, suspended in 20 μl of PBS containing 0.5% tween20, 1% donkey serum and 2ul of anti-BrdU antibody (1:10 diution, BD Biosciences) and incubated overnight at 4° C. Cells were then washed and incubated with secondary antibody-anti mouse Alexa488 (1:1000) for 1 hour at room temperature. Cells were finally washed, suspended in PBS containing 100 μg/ml of RNase A, 50 μg/ml of PI (propidium iodide) and 0.05% Triton X and incubated for 30 mins at 37° C. in the dark. The cells were then subjected to FACS using the accuri C6 flow cytometer (UPCI shared resources).
# [2] = test system: survivin protein expression in MKL-1 cells; experiment: Immunoblotting for survivin; type: cell-based, human; details: after 12 h treatment
# Protocol: Cells were lysed in buffer (RIPA or 10 mM Tris-HCl pH 8.0, 0.6% SDS) containing protease inhibitor cocktail (Roche). Lysates were electrophoresed in 10% SDS-PAGE, transferred to nitrocellulose membrane (Amersham) and reacted with specific antibodies (CM2B4, (1:5000 dilution) (Shuda et al., Human Merkel cell polyomavirus infection I. MCV T antigen expression in Merkel cell carcinoma, lymphoid tissues and lymphoid tumors. Int J Cancer 125, 1243 (Sep. 15, 2009)), cleaved PARP, cleaved caspase3, survivin, XIAP, p53, Bcl-2, Bax (1:1000 dilution, Cell Signalling Technologies), E2F1, cyclin E (1:1000 dilution, Santa Cruz Biotechnology), LC3 (1:1000 dilution, Novus Biologicals) or α-tubulin (1:5000 dilution, Sigma)) overnight at 4° C., followed by anti-mouse (1:5000 dilution, Amersham) or anti-rabbit IgG-HRP conjugates (1:3000 dilution, Cell signaling) for 1 hour at room temperature. Peroxidase activity was detected using Western Lightning plus-ECL reagent (Perkin Elmer). For quantitative immunoblotting, Odyssey Infrared Imaging system (LICOR) was used with IRDye 800-conjugated secondary antibodies (1:5000 dilution, Rockland Immuno chemicals).
# [3] = test system: MCV-positive MCC cell lines (MKL-1, MKL-2, MS-1 and WaGa); experiment: Cell-Titer Glo growth inhibition by YM155; type: cell-based, human; details: 48 h
# Excerpt: (§1) Seven Merkel cell carcinoma cell lines: MKL-1, MKL-2, MS-1, UISO, MCC13, MCC26 and WaGa (kind gift of Jurgen Becker (Houben et al., Merkel cell polyomavirus-infected Merkel cell carcinoma cells require expression of viral T antigens. J Virol 84, 7064 (July, 2010); Ronan et al., Merkel cell carcinoma: in vitro and in vivo characteristics of a new cell line. J Am Acad Dermatol 29, 715 (November, 1993); Rosen et al., Establishment and characterization of a neuroendocrine skin carcinoma cell line. Lab Invest 56, 302 (March, 1987)); NCI-H69 small cell lung cancer cell line (ATCC); 293 human embryonic kidney cells (ATCC); U2OS osteosarcoma cell line (kind gift of Ole Gjoerup); BJhTERT immortalized foreskin fibroblast cell line (kind gift of Ole Gjoerup); and BJ primary foreskin fibroblasts (ATCC) were used to screen and evaluate the small molecules examined in this study (Houben et al., J Virol 84, 7064 (July, 2010); Ronan et al., J Am Acad Dermatol 29, 715 (November, 1993); Rosen et al., Lab Invest 56, 302 (March, 1987)). […]
# (§2) Serial drug dilutions from 10^−4 M to 10^−9 M were used on MCC and non-MCC cell lines. […] Cell viability was then measured using Cell Titer Glo (Promega) kit following manufacturer's instructions as described previously. […] EC50 doses for the drugs were calculated using a four parameter logistic equation (GraphPad Prism).
# [4] = test system: MS-1 (MCV-positive) and UISO (MCV-negative) cell xenografts; experiment: MS-1 and UISO xenograft drug treatment; type: in vivo, NSG mice; details: end of three week treatment period; MS-1 and UISO xenografts
# Protocol: MCC cells were checked for viability >90% by trypan blue staining, resuspended in PBS (2×10^7 cells in 100 μl) and inoculated subcutaneously into the right flank of mice.
# All treatments were delivered for three consecutive weeks. […] YM-155 (2 mg/kg) was given intraperitoneally on five consecutive days, followed by a two-day treatment free interval.
# BJ cells = experiment: Trypan blue dye exclusion assay; type: cell-based, human; details: 48 h
# Protocol: (§3) Cells were equally seeded and treated with YM155 for 48 hours. To count blue stained dead cells, cells were treated with Accutase (Millipore), collected, resuspended in PBS, mixed with equal volume of Trypan blue (Lonza, 0.4%) and counted using a hemocytometer under the microscope. The counts were done in triplicate and the experiment was repeated three times.
# UISO cells = experiment: Trypan blue dye exclusion assay; type: cell-based, human; details: 48 h
# Protocol: as §3
# MKL-1 cells [5] = experiment: Cell death evaluation by CFDA and PI staining; type: cell-based, human; details: 100 nM
# Protocol: Upon harvesting cells are resuspended in 2 ml of PBS containing 4 μg/ml PI (propidium iodide, Sigma) and 10 μM Carboxy fluorescin diacetate (CFDA, Invitrogen) at room temperature for 10 mins. Cells were then rinsed in 1× PBS and then examined under the microscope. Quantitation was done using ImageJ software.
# MKL-2 xenografts = experiment: MKL-2 xenograft drug treatment; type: in vivo, NSG mice; details: continuously at 4 mg/kg
# Protocol: Cells of Merkel cell polyomavirus (+) carcinoma cell lines MKL-1, MS-1, WaGa, and MKL-2 were checked for viability >90% by trypan blue staining, resuspended in PBS (2×10^7 cells in 100 μl) and inoculated subcutaneously into the right flank of mice.
# [6] = test system: MCV-negative MCC cell line; experiment: Cell-Titer Glo growth inhibition by YM155; type: cell-based, human; details: MCV-negative vs MCV-positive MCC cells
# Protocol: Serial drug dilutions from 10^−4 M to 10^−9 M were used on MCC and non-MCC cell lines. Cells were seeded into 384-well plates at 6000 cells in 50 μl of medium per well. After 24 hours, 25 μl of 3× drugs were added at increasing concentration to each well. Cell viability was then measured using Cell Titer Glo (Promega) kit following manufacturer's instructions as described previously. Each drug concentration was tested in triplicate for each cell line and experiments were repeated twice. EC50 doses for the drugs were calculated using a four parameter logistic equation (GraphPad Prism).
# [7] = test system: MCV-negative MCC13, BJ and BJhTERT cells; experiment: Cell-Titer Glo growth curves for YM155; type: cell-based, human; details: 48 h
# Excerpt: as §1, §2
# [8] = test system: MCV-negative UISO and MCC26; experiment: Cell-Titer Glo growth curves for YM155; type: cell-based, human; details: 48 h
# Excerpt: as §1, §2
smiles,measurement,setting,value
"COCCn1c2c([n+](Cc3cnccn3)c1C)C(=O)c1ccccc1C2=O.[Br-] [YM155, 1-(2-methoxyethyl)-2-methyl-4,9-dioxo-3-(pyrazin-2-ylmethyl)-4,9-dihydro-1H-naphtho[2,3-d]imidazol-3-ium bromide]",survivin levels in xenograft tumors (qRT-PCR),survivin,Lower survivin levels
same,BrdU incorporation,MKL-1 cells [1],ablates BrdU incorporation in all phases of the cell cycle
same,survivin protein expression,[2],dose-dependent decrease
same,"sensitivity to YM155, dose-dependent growth curves","[3]; MKL-1, MKL-2, MS-1 and WaGa",sensitive
same,EC50,"[3]; Homo sapiens, MKL-1, range over MCV-positive MCC cell lines, Cell-Titer Glo, read-out: EC50, inhibiting MCV-positive MCC cell growth in vitro",1.34 to 12.2 nM
same,"final tumor volumes, % (median) of saline-treated control mice",[4],43-55%
same,"cell killing, trypan blue vital dye exclusion",BJ cells,resistant
same,"cell killing, trypan blue vital dye exclusion",UISO cells,relatively less sensitive
same,"time to initiation of programmed cell death (PI positive, CFDA negative)",MKL-1 cells [5],12 to 24 h
same,"animals surviving, of 10",MKL-2 xenografts,three survived more than four months
same,"concentrations inhibiting MCV-negative MCC cell line growth, higher than for MCV-positive MCC cells",[6],1-2 orders of magnitude
same,"sensitivity to YM155, dose-dependent growth curves",[7],relative resistance
same,"sensitivity to YM155, dose-dependent growth curves",[8],intermediate sensitivity

# From US9662329B2, “Use of survivin antagonists in polyomavirus-related disease” (University of Pittsburgh—Of the Commonwealth System of …, priority 2012, dated 2017)
